Experimental data: patent publication US20240383906A1, “5-SUBSTITUTED PYRIDINE-2(1H)-KETONE COMPOUND AND USE THEREOF” (JIANGSU KANION PHARMACEUTICAL CO., LTD., priority 2021, published 2024)

Tests used:
Capan-2 cells = test: Capan-2 cell anti-proliferative activity test; assay type: cell-based; settings: Homo sapiens, Capan-2, 120 h; 5 days, CellTiter-Glo
Experimental: Capan-2 cells were provided by Wuhan Heyan Biomedical Technology Co., Ltd., and CellTiter-Glo was purchased from Promega.
Capan-2 cells were seeded in a white 96-well plate, with 80 μL of cell suspension per well, each containing 5,000 Capan-2 cells. The cell plate was placed in a carbon dioxide incubator for overnight culture.
The test compounds were 3-fold diluted with a multi-channel pipette to the 9th concentration, i.e., diluted from 200 μM to 30 nM, and duplicate experiment was set. 78 μL of culture medium was added to an intermediate plate, and then 2 μL of gradient diluted compound per well was transferred to the intermediate plate according to the corresponding position. After mixing well, the compound was transferred to the cell plate at 20 μL per well. The cell plate was placed in a carbon dioxide incubator and cultured for 5 days. Another cell plate was prepared, and the signal value was read on the day of drug administration to serve as the maximum value (Max value in the equation below) for data analysis. 25 μL of cell viability chemiluminescence detection reagent was added to each well of this cell plate, and it was incubated at room temperature for 10 minutes to stabilize the luminescent signal. A multimode microplate reader was used for reading.
After the cell plate was cultured for 5 days, 25 μL of Promega CellTiter-Glo reagent was added to each well of the cell plate, and it was incubated at room temperature for 10 minutes to stabilize the luminescent signal. A multimode microplate reader was used for reading.
The IC50 value could be obtained through curve fitting, and the results of the inhibitory activity of the compounds of the present disclosure on the proliferation of Capan-2 cells are shown in Table 11.

[1] = tested on: WNT pathway STF reporter gene; test: Super-Top-Flash (STF) reporter gene inhibitory activity test; assay type: cell-based; settings: HEK293 STF and L wnt3A cells 1:1, 24 hours, Bright-Glo
Experimental: HEK293 STF and L wnt3A cells were provided by Wuhan Heyan Biomedical Technology Co., Ltd., and Bright Glo was purchased from Promega.
• HEK293 STF and L wnt3A cells were seeded in a white 96-well plate at a ratio of 1:1, with 80 μL of cell suspension per well, each containing 20,000 HEK293 STF cells and 20,000 L wnt3A cells. The cell plate was placed in a carbon dioxide incubator for overnight culture.
The test compounds were 5-fold diluted with a multi-channel pipette to the 8th concentration, i.e., diluted from 400 μM to 5.12 nM, and duplicate experiment was set. 78 μL of culture medium was added to an intermediate plate, and then 2 μL of gradient diluted compound per well was transferred to the intermediate plate according to the corresponding position. After mixing well, the compound was transferred to the cell plate at 20 μL per well. The cell plate was placed in a carbon dioxide incubator and cultured for 24 hours.
100 μL of Promega Bright-Glo reagent was added to each well of the cell plate, and it was incubated at room temperature for 10 minutes to stabilize the luminescent signal. A multimode microplate reader was used for reading.
Using the raw data from the multimode microplate reader, the IC50 value could be obtained through curve fitting. Table 10 provides the data on the inhibitory activity of the compounds of the present disclosure on the Wnt signaling pathway.

[2] = Solvent pre-stability of crystal form A (suspension stirring, XRPD); assay type: physicochemical; settings: for Crystal form after suspension in solvent (XRPD): stirred overnight at 25° C.
Experimental: (To ensure maximum suspension of the sample, the amount of compound and solvent was adjusted during the experiment based on the observed phenomena, and even the container used for the experiment was changed if necessary.) After adding a magneton, the suspension sample was placed on a magnetic heating stirrer (25° C.) for testing. After stirring overnight at 25° C., the suspension sample was filtered, and the solid sample on the filter cake was placed in a vacuum drying oven (45° C.) to dry overnight. The crystal form of the solid was obtained by X-ray powder diffraction (XRPD) detection.

[3] = Hygroscopicity of crystal form A (DVS); assay type: physicochemical
Experimental: • SMS DVS intrinsic dynamic vapor sorption instrument
Note: ΔW % represents the increase in weight due to moisture absorption of the test sample at 25±1° C. and 80±2% RH.

[4] = Solid pre-stability test of crystal form A (high temperature, high humidity, light; XRPD); assay type: physicochemical
Experimental: The sample placed under high temperature (60° C.) and high humidity (relative humidity 92.5% RH) conditions was sealed with aluminum foil to seal the mouth of the vial, and small holes were made in the aluminum foil to ensure that the sample could fully contact the ambient air, and it was placed in the corresponding constant temperature and humidity box. The light sample (open, not covered with aluminum foil) and the light control sample (the entire sample vial was covered with aluminum foil) were placed in the light box. At each time point, two samples were weighed separately as official test samples. […] The sample vial was wrapped with aluminum foil and small holes were made, and it was also placed in the corresponding constant temperature and humidity box. The sample was taken for testing (XRPD) on days 5 and 10, and the test results were compared with the initial test results on day 0.

Cn1cc(-c2ccc(CNc3nccc4c3ncn4-c3ccccc3)cn2)ccc1=O [Compound 7]
IC50 (Capan-2 cells): 5.94 nM

Cn1cc(-c2ccc(CNc3nccc4c3ncn4-c3cncc(F)c3)cn2)ccc1=O [Compound 5]
IC50 (Capan-2 cells): 11.7 nM

Cn1cc(-c2ccc(CNc3nccn4c(-c5cncc(F)c5)cnc34)cc2)ccc1=O [Compound 6]
IC50 (Capan-2 cells): 22.2 nM

Cn1cc(-c2ccc(CNc3nccn4c(-c5cncc(F)c5)cnc34)cn2)ccc1=O [Compound 4]
IC50 (Capan-2 cells): 24.6 nM

Cn1cc(-c2cnc(CNc3nccn4c(-c5cncc(F)c5)cnc34)cn2)ccc1=O [Compound 3]
IC50 (Capan-2 cells): 28 nM

Cn1cc(-c2ccc(CNc3ncnn4c(-c5cncc(F)c5)ccc34)cn2)ccc1=O [Compound 1]
IC50 [1]: 8.41 nM | IC50 (Capan-2 cells): 6.09 nM

Cn1cc(-c2cnc(CNc3nccn4c(-c5cc(F)cc(F)c5)cnc34)cn2)ccc1=O [crystal form A of compound 2]
Crystal form after suspension in solvent (XRPD) ([2]; 2-Methyltetrahydrofuran): Crystal form A | Crystal form after suspension in solvent (XRPD) ([2]; Acetone): Crystal form A | Crystal form after suspension in solvent (XRPD) ([2]; Acetone:water (2:1)): Crystal form A | Crystal form after suspension in solvent (XRPD) ([2]; Acetonitrile): Crystal form A | Crystal form after suspension in solvent (XRPD) ([2]; Dioxane): Crystal form A | Crystal form after suspension in solvent (XRPD) ([2]; Ethanol): Crystal form A | Crystal form after suspension in solvent (XRPD) ([2]; Ethanol:water (1:1)): Crystal form A | Crystal form after suspension in solvent (XRPD) ([2]; Ethyl acetate): Crystal form A | Crystal form after suspension in solvent (XRPD) ([2]; Isopropanol): Crystal form A | Crystal form after suspension in solvent (XRPD) ([2]; Methanol): Crystal form A | Crystal form after suspension in solvent (XRPD) ([2]; Methyl tert-butyl ether): Crystal form A | Crystal form after suspension in solvent (XRPD) ([2]; Tetrahydrofuran): Crystal form A | Stability in different solvents ([2]; conclusion): good stability | Crystal form after suspension in solvent (XRPD) ([2]; n-Heptane): Crystal form A | Hygroscopicity classification ([3]; 25° C. and 80% RH): no or almost no hygroscopicity | Weight gain due to moisture absorption ([3]; 25° C., 80% RH, compared to initial humidity of 30% (cycle 1 adsorption)): 0.07% | Weight decrease of the sample ([3]; 25° C., humidity continued to rise to 90%): 0.15% | Weight gain due to moisture absorption ([3]; 25° C., humidity continued to rise to 95% (cycle 1 adsorption)): 0.01% | Crystal form before and after the DVS test (XRPD) ([3]; 30-95-0-95% RH/25° C.): the crystal form did not change | Crystal form (XRPD) ([4]; 0 days): Crystal form A | Crystal form (XRPD) ([4]; High humidity (relative humidity 92.5%, open), 5 days): Crystal form A | Crystal form (XRPD) ([4]; High humidity (relative humidity 92.5%, open), 10 days): Crystal form A | Crystal form (XRPD) ([4]; High temperature (60° C., open), 5 days): Crystal form A | Crystal form (XRPD) ([4]; High temperature (60° C., open), 10 days): Crystal form A | Crystal form (XRPD) ([4]; Light (total illumination = 1.2 × 10^6 Lux · hr/near ultraviolet = 200 w · hr/m^2, open), 5 days): Crystal form A | Crystal form (XRPD) ([4]; Light (total illumination = 1.2 × 10^6 Lux · hr/near ultraviolet = 200 w · hr/m^2, open), 10 days): Crystal form A | Stability under high temperature, high humidity, and strong light ([4]; conclusion): good stability
